Experimental data from patent publication US5703069A, “Method for inhibiting and controlling viral growth” (Warner-Lambert Company, priority 1996, dated 1997).
Like-named read-outs stand apart in the source and are kept apart here.

Columns and labels:
Vero cells = conditions: monkey, 120 h
Protocol: This screen was designed to identify compounds which inhibit HSV-1 in phases of its life cycle from adsorption and penetration through late gene expression. The primary screen, AVUS1, involves adding single compounds to a monolayer of Vero cells to a final concentration of 25 μg/mL, then infecting the cells with a recombinant HSV-1, Us3::Tn5-lacZ. This virus contains an insertion of a lacZ gene driven by a viral late promoter in the US3 protein kinase gene of HSV-1. The infection is allowed to proceed for 20 hours, then the cells are lysed with a solution of Triton X-100 and CPRG in "Z" buffer and assayed for β-galactosidase activity. The positive control used is solvent alone without compound, which corresponds to 0% inhibition, and the negative control used is either no virus added to the wells or 0.5% Triton X-100 added to the wells, which corresponds to 100% inhibition. Percent inhibition of a compound is then calculated using these positive and negative controls. […] In AVUS3, the test compound is dissolved in MeOH at 20 mM. A titration of the compound is then assayed in both the same β-galactosidase virus replication inhibition assay and a 5-day XTT toxicity assay. […]

wild type HSV-1 = experiment: PRA (plaque reduction assay with wild type HSV-1); type: cell-based; conditions: read-out: IC50 Inhibitory Activity (PRA)
OM-10.1 cells [1] = experiment: inhibition of HIV-1 activation / HIV expression in chronically infected OM-10.1 cells (TNF-α induced); type: cell-based, human immunodeficiency virus type 1 (HIV-1); conditions: Human immunodeficiency virus 1
Excerpt: The cellular pathways involved in mediating the activating signal from the plasma membrane to the integrated virus, resulting in HIV-1 expression, are much less clear. Recently, the development of a reliable and simple system for evaluating compounds that could prevent activation of latent HIV was reported at a National Cooperative Discovery Grant (NCDDG)/AIDS meeting by P. Feorino, S. T. Butera, T. M. Folks, and R. F. Schinazi, Nov. 3-7, 1991. The assay system employed the OM-10.1 cell line, a unique chronically-infected promyelocytic clone which remains CD4+ until HIV-1 activation with tumor necrosis factor-α. The expression of CD4+ on the cell surface and the activity of reverse transcriptase are used as markers for quantitating viral expression. Alternatively, other HIV markers, such as protease activity, which are known to those of skill in the art can be used. OM-10.1 cells remain CD4+ until viral activation and respond to tumor necrosis factor induction, and therefore, these cultures are used to conveniently and rapidly examine pharmacologics for an ability to prevent CD4+ down modulation (decrease in expression of CD4+ on the cell surface) and HIV-1 expression.
A variety of compounds known to have antiviral properties against either acutely or chronically infected cells were evaluated for their ability to inhibit HIV expression in these OM-10.1 cells. […]

herpesvirus = experiment: SGC anti-herpesvirus assay; type: cell-based; conditions: read-out: IC50 Inhibitory Activity (SGC)
OM-10.1 cells [2] = conditions: NCDDG/AIDS poster, San Diego, Nov. 3-7 (1991); cited from earlier work
[3] = tested on: TPA-mediated CD4 down regulation and HIV expression; conditions: Hamamoto et al. 1989; cited from earlier work

Work on COc1ccc2sc3c(c2c1)SCCNC3=O [2,3-Dihydro-9-methoxy[1]benzothieno[2,3-f]-1,4-thiazepin-5(4H)-one] yielded a CC50 (Vero cells) of 60000 nM, an IC50 (wild type HSV-1; Human alphaherpesvirus 1, PRA) of 450 nM and an IC50 (wild type HSV-1; PRA) of 550 nM. It also gave an IC50 (OM-10.1 cells [1]) of 210 nM and an IC50 (herpesvirus) of 350 nM.

In the case of Cc1cn([C@H]2C[C@H](F)[C@@H](CO)O2)c(=O)[nH]c1=O [3'-fluoro-3'-deoxythymidine (FLT), 3'-fluoro-3'-deoxythymidine], the “inhibition of the activation of HIV-1 (in words)” value (OM-10.1 cells [2]) is listed as “modest inhibitors of the activation of HIV-1”.

For CCCCCCCCCCCCCC(=O)O[C@@H]1[C@@H](C)[C@@]2(O)[C@@H](C=C(CO)C[C@]3(O)C(=O)C(C)=C[C@@H]23)[C@@H]2C(C)(C)[C@]12OC(C)=O [12-O-tetradecanoylphorbol-13-acetate], the “effect on CD4 and viral expression in HIV-infected cells (in words)” value [3] is listed as “mediates CD4 down regulation and viral expression in HIV-infected cells”.

For CC(=O)N(O)CCCCCNC(=O)CCC(=O)N(O)CCCCCNC(=O)CCC(=O)N(O)CCCCCN [desferrioxamine], the “inhibition of the activation of HIV-1 (in words)” value (OM-10.1 cells [2]) is listed as “modest inhibitors of the activation of HIV-1”.
